Measurements from US20050031600A1, “Cardiac function by mesenchymal stem cell transplantation” (Genzyme Corporation, priority 1998, published 2005).
Blank lines part the entries; values can stand above or below the compound they belong to.

Tested on: mesenchymal stem cells (MSCs)
Experiment: Cardiomyogenic differentiation of cultured rat MSCs in vitro (myotube formation, immunofluorescent staining)
Type: cell-based
Conditions: for staining for cardiac specific troponin I / staining for myosin heavy chain: cultured MSCs, 21st day
Protocol: An incision was made in the hindlimb of each rat while the rat was under general anesthesia. An 18-gauge needle was punctured to the bone and used to aspirate bone marrow (1 ml) from the tibia. The marrow aspirate was transferred to sterile tubes, which contained 10 ml Iscove's modified Dulbecco medium (TMDM; Gibco Laboratories, Gaithersberg, Md.), containing antibiotics (penicillin G, 100 U/ml; streptomycin, 100 μg/ml) and 1000 IU heparin. The marrow cell suspension was dispersed into single cells using a 23-gauge needle. The tube was spun at 2000 rpm for 5 min to pellet the cells. After removing the supernatant and fat layer, the cell pellet was re-suspended with IMDM. To separate bone marrow cells and red blood cells, the density centrifugation method described by Yablonka-Reuveni and Nameroff (Histochemistry, 87:27-38, 1987) was used. First, the cell suspension was loaded onto 20% and 60% Percoll (Sigma Chemical Co., St. Louis, Mo.) layers, which were piled up in a tube, and the tube was centrifuged at 14000 rpm. for 10 minutes. […] The cells were centrifuged at 2,000 rpm for 10 minutes and then washed with phosphate-buffered saline (PBS) to remove the Percoll. This was repeated and then the cell pellet was resuspended in culture medium and used for in vitro and in vivo studies.
To identify the optimal conditions for inducing mesenchymal stem cell (MSC) differentiation by 5-azacytidine, the cells were cultured in IMDM containing 10% fetal bovine serum and antibiotics, with 5-azacytidine (5-aza: 0.1, 1, 5, 10, 20, and 100 μM; n=6 for each group), with insulin (1 nM; n=6), or with TGFβ1 (10 ng/ml; n=6). The cells were incubated with these agents for 24 hours and then washed with PBS. The medium was changed twice a week for 21 days. Almost all the hematopoietic stem cells were washed away with the medium changes.
To test the effect of cell passaging on cardiomyogenic differentiation of MSCs, samples of MSCs, prepared as described above, were passaged once prior to preparing the cell cultures described below. In this case, the term passaging refers to the distribution of cultured cells growing in a culture dish into new dishes after the cells reach confluence (i.e. when the cells contact each other and cover the surface of the dish).
One group of the MSCs, prepared as above, was, in turn, divided into two groups: A (control) and B, each group having 6 samples. Cells of the control group, A, were cultured for 7 days in IMDM containing 10% fetal bovine serum and antibiotics. The MSCs of group B were initially cultured for 2 days in the above medium after which 5-aza (10 μM) was added to the culture medium. After a 24 hour exposure to 5-aza, the compound was washed out of the culture and the cells were culturing in the medium described above for 4 days more.
Following the above culturing period, the cells from both groups were stained by immunocytofluorescence to detect the presence of cardiac-specific troponin I (a contractile apparatus-specific protein found only in cardiomyocytes) or muscle-specific myosin heavy chain. Briefly, the staining method entailed washing the cells with phosphate-buffer saline (PBS), followed by incubation in methanol at −20° C. for 20 minutes. The dishes were then washed with PBS three times. Monoclonal antibodies specific against cardiac troponin I (Spectral Diagnostic, Toronto) or against myosin heavy chain (Biogenesis, USA), were added to the cells and the dishes were incubated at 37° C. for 1 hour. To remove unbound antibody, the dishes were gently shaken at room temperature and washed three times with PBS. A rabbit antibody conjugated with FITC (fluorescein isothiocyanate) against mouse IgG was added to the dishes, after which incubation and rinsing with PBS were performed as described above for the first antibody. Observations were made and photos were taken. […]

[1] = cultured bone marrow MSCs, 5-aza added on third day, seen on 10th day of culture

Compound: insulin
staining for cardiac specific troponin I: negative
staining for myosin heavy chain: negative
myotube formation [1]: did not form myotubes

Compound: TGFβ1
staining for cardiac specific troponin I: negative
staining for myosin heavy chain: negative
myotube formation [1]: did not form myotubes

number of MSCs in cultures (10 μM 5-aza added on first or second day compared with third day after isolation): much smaller
Compound: Nc1ncn([C@@H]2O[C@H](CO)[C@@H](O)[C@H]2O)c(=O)n1 [5-aza, 5-azacytidine]
myotube formation (5 μM 5-aza for 24 hours): myotube formation was present
number of myotubes, visually determined (10 μM 5-aza compared with 5 μM 5-aza): greater
myotube formation (10 μM 5-aza for 24 hours): myotube formation was present
necrotic cells (MSCs incubated with 5-aza at 20 μM): more than 50%
necrotic cells (MSCs incubated with 5-aza at 100 μM): more than 50%
differentiation into cardiomyocyte-like cells (myotube formation) (MSCs passaged once, then 5-aza 10 μM for 24 hours): did not differentiate into cardiomyocyte-like cells
cell morphology (concentrations of 5-aza lower than 5 μM): morphologically similar to the control cells
staining for cardiac specific troponin I: stained positively
staining for myosin heavy chain: stained positively
myotube formation [1]: formed multinucleated myotubes
